What all share (assay type): cell-based
In test [1] the target is 320 non-olfactory GPCRs (Homo sapiens, UniProt P21554).
Test [2] deals with 320 non-olfactory GPCRs (Homo sapiens, UniProt P21917).
In test [3] the target is T1, 320 non-olfactory GPCRs (Homo sapiens, UniProt P41180).
T1 construct: expressed in transfected cells; host or cells: HTLA cells

Test [4] addresses T2, 320 non-olfactory GPCRs (Homo sapiens, UniProt P51679).
T2 construct: expressed in transfected cells; host or cells: HTLA cells

Where “and” joins values, the source holds several entries; their conditions need not be identical. Identical values can stand only once.
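Note: compound tested at 1 µM final concentration.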

T2 sequence (P51679 whole entry): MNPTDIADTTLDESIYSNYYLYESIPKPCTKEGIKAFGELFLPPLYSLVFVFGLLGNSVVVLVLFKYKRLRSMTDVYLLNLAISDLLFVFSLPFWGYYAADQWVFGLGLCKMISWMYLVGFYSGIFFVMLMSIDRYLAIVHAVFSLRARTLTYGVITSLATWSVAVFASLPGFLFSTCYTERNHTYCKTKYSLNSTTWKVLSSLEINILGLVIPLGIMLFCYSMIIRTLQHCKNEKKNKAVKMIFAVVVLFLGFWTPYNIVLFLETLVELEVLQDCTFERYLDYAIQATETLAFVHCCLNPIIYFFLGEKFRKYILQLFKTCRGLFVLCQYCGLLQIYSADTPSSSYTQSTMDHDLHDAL
Chain of 320 non-olfactory GPCRs (Homo sapiens, UniProt P21917) (P21917 whole entry): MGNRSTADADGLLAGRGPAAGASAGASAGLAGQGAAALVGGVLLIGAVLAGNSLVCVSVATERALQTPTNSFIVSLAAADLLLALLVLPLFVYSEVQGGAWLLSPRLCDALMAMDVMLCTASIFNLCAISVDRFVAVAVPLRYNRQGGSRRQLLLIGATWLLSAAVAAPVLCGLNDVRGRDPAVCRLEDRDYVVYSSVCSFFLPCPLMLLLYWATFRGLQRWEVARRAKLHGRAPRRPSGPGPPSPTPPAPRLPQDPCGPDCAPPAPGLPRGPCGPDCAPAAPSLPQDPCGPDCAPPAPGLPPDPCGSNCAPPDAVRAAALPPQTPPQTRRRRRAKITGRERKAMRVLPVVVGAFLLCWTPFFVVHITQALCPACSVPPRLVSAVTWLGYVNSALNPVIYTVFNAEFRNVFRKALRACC
Chain of 320 non-olfactory GPCRs (Homo sapiens, UniProt P21554) (P21554 whole entry): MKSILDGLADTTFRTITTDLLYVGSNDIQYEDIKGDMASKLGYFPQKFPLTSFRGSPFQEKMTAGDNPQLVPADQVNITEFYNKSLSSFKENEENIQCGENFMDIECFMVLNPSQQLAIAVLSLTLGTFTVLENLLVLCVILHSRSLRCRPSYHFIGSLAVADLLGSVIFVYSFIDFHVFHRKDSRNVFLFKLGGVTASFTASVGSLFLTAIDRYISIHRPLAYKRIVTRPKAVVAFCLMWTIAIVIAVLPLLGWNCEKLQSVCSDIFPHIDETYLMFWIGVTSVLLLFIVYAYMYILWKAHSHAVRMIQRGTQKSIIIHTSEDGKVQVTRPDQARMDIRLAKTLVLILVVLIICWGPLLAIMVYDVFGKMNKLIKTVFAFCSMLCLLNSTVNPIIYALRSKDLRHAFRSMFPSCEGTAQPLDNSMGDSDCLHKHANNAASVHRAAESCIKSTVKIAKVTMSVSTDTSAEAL
T1 sequence (P41180 20-1078): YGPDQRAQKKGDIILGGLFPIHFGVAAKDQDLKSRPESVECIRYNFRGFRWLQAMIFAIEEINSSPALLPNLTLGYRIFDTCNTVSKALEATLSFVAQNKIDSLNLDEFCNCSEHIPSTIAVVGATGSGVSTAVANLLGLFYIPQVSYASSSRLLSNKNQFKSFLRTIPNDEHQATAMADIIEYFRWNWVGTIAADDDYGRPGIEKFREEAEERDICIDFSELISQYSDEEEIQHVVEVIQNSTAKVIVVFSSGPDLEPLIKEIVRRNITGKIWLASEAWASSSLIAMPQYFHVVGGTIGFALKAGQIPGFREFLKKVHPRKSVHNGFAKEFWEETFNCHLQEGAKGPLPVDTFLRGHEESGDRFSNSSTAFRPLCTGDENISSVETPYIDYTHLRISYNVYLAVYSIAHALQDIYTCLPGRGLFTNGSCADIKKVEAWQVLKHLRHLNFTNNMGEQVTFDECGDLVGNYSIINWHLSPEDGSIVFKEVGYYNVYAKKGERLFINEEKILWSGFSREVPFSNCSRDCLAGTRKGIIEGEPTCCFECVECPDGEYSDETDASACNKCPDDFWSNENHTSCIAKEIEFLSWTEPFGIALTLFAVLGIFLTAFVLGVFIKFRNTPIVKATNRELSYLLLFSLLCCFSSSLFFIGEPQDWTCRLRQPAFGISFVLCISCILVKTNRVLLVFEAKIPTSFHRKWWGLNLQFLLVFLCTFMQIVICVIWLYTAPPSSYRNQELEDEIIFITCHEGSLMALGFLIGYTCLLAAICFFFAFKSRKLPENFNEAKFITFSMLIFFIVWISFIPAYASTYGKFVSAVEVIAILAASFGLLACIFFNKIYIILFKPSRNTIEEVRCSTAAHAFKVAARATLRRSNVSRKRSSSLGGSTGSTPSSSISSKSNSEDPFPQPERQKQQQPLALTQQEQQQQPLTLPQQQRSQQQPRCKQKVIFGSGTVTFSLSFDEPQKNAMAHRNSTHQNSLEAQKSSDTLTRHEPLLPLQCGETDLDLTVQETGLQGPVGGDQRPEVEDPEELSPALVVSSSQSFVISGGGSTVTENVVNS

For the compound `CCOc1cccc2cc(C(C)NCC3(O)CCCCC3)oc12` (stereo not shown) [O4LE6], the “Fold of Basal” value at 320 non-olfactory GPCRs [1] was 1.089 and 1.197 and 0.9218 and 0.8315; on 320 non-olfactory GPCRs [2], 1.429 and 1.1388 and 0.8668 and 1.288; at 320 non-olfactory GPCRs [3], 0.9783 and 1.253 and 1.231 and 1.397; at 320 non-olfactory GPCRs [4] it was 1.013 and 0.8978 and 0.7406 and 0.6452.

For the origin of these results see PMC7044277 (Nature Communications, 2020).
